{"source": "patent US20070065472A1", "about": "“Benzyl-1,3-thiazolidine-2,4-dione compounds for stimulating or inducing the growth and/or for reducing the loss of keratin fibers” (L'OREAL, priority 2005, published 2007)", "data": [{"molecule": "O=C1NC(=O)C(Cc2ccccc2Oc2ccccc2)S1", "note": "(stereo not shown) [Example 1, 5-(2-phenoxybenzyl)-1,3-thiazolidine-2,4-dione]", "values": [{"measurement": "melting point", "value": "84 to 85", "unit": "°C"}]}]}
